Reference: paper PMC10288505, “Photoswitchable Calixarene Activators for Controlled Peptide Transport across Lipid Membranes” (Journal of the American Chemical Society, 2023)
“And” between values parts separate entries of the source, which are not always exact repeats. Identical values can stand only once. Like-named read-outs stand apart in the source and are kept apart here.

Experiment: Carboxyfluorescein (CF) dye efflux assay, counterion-activated peptide transport
Type: biochemical
Conditions: for TE (transport efficiency), R6 transport / TE (transport efficiency), R8 transport: TE = Ymax × pEC50/f, pEC50 = −log EC50 (in mM), f = 20.6; for TE (transport efficiency), R6 transport: R6 4 μM; for TE (transport efficiency), R6 transport / TE (transport efficiency), R8 transport / Ymax (maximal CF release relative to Triton X-100 lysis), R6 transport / EC50 / Ymax (maximal CF release relative to Triton X-100 lysis), R8 transport: EYPC-LUV⊃CF 15 μM; for TE (transport efficiency), R8 transport: R8 4 μM; for Ymax (maximal CF release relative to Triton X-100 lysis), R6 transport / EC50 / Ymax (maximal CF release relative to Triton X-100 lysis), R8 transport: 5 mM phosphate buffer pH 7.3, Hill fit, triplicate; for EC50 / Activation of CF release in the presence of peptide R4: 50 mM CF inside; for EC50: fluorescence; for Activation of CF release in the presence of peptide R4: R4 5 µM, EYPC-LUV⊃CF 15 µM
Protocol: Dynamic light scattering (DLS) control experiments also confirmed liposome integrity under the experimental conditions employed in the different membrane transport assays, which ruled out potential membrane disruption interferences (Figure S34). Established dye efflux assays were performed using the carboxyfluorescein (CF) dye encapsulated at self-quenching concentrations in egg phosphatidylcholine large unilamellar vesicles (EYPC-LUV⊃CF).[26],[27],[29],[45] In these experiments, the fractional release of trapped CF (or fractional transport activity, Y), triggered by the addition of counterion activators and peptides, is monitored by time-resolved fluorescence spectroscopy and calibrated by the addition of Triton X-100 (Figure S35).
The studies were performed with both 1 and 2 in the E and Z configurations in the presence of fixed concentrations of liposomes and cationic peptides. […] Likewise, the addition of peptides alone or nonbinding anionic peptides in the presence of calixarene activators also results in unmodified fluorescence signal, confirming that the formation of the calixarene–peptide complex is critical to activate the transport process. […] This approach retrieves the Ymax (i.e., maximal CF release relative to liposome lysis after the addition of Triton X-100) and EC50 (i.e., the effective counterion activator concentration required to reach Ymax/2) as the relevant parameters to measure the efficiency of the counterion activators.
10 mg of L-α-phosphatidylcholine (95%) (Egg, Chicken) were dissolved in 1 ml of chloroform. The solution was evaporated under a nitrogen stream, under rotation, to form a thin lipid film in the bottom of the flask. This film was left to dry under vacuum for a minimum of 1h. After drying the maximum of the solvent from the solution, 1 ml of the solution to incorporate (CF 50 mM in 5 mM phosphate buffer for EYPC-LUV⊃CF and only phosphate buffer 5 mM pH 7.4, for the LUVs with no encapsulation) was added to the thin film and the lipids were left to resuspend under agitation, in a 40 °C bath, for 30 min. The resuspended lipid mixture was then submitted to 10 freeze-thaw cycles and extruded 23 times through a 100 nm membrane, to obtain uniform, monodisperse liposomes with high encapsulation of the added solution. The liposomes were then separated from the molecules that were not encapsulated by size-exclusion chromatography, with Sephadex G25 (V = 37 ml), obtaining two fractions, one with high turbidity and a clear one, corresponding to the encapsulated and free sensor, respectively. The samples were then analyzed by Dynamic Light Scattering (DLS) to determine the average size of the liposomes in solution and their size distribution.
All assays were done up to 48h after the preparation of the vesicles to ensure their integrity and majority of CF still encapsulated.
EC50 and Ymax calculation. For the measurement of 1 and 2’s effectiveness as a counterion activators of polyarginine transport, dye efflux assays were executed at several counterion activator concentrations, while maintaining the concentration of peptide and LUV fixed as indicated in the respective figures.
For the dye efflux assays, CF emission was followed throughout the assay, with consecutive additions of the elements of the solution – the initial solution presented only the vesicles at a fixed concentration. A counterion activator aliquot is then added according to the concentration to be tested and the emission is measured to confirm that CF remains encapsulated; some counterion activators can act as detergents at sufficient concentrations. Finally, the peptide in question is added and fluorescence spectra are measured […]
until the emission stabilizes and a maximum of release is reached. If the counterion activator has the capacity to activate the transport, CF should be co-transported to the exterior of the liposome with the influx of the counterion-peptide complex. Finally, Triton X-100 is added to the solution to dissolve the […]

[1] = peptide R6 4 μM, read-out: EC50 (effective counterion activator concentration to reach Ymax/2), R6 transport
[2] = peptide R8 4 μM, read-out: EC50 (effective counterion activator concentration to reach Ymax/2), R8 transport

Structure (SMILES) | TE (transport efficiency), R6 transport | TE (transport efficiency), R8 transport | Ymax (maximal CF release relative to Triton X-100 lysis), R6 transport (peptide R6 4 μM) | EC50 [1] [nM] | Ymax (maximal CF release relative to Triton X-100 lysis), R8 transport (peptide R8 4 μM) [%] | EC50 [2] [nM] | Activation of CF release in the presence of peptide R4
CCCCc1ccc(/N=N/c2ccc(OCCCOc3c4cc(S(=O)(=O)[O-])cc3Cc3cc(S(=O)(=O)[O-])cc(c3O)Cc3cc(S(=O)(=O)[O-])cc(c3O)Cc3cc(S(=O)(=O)[O-])cc(c3O)C4)cc2)cc1.[Li+].[Li+].[Li+].[Li+] [E-2] | 20.2 ± 0.2 | 22.2 ± 0.3 | 96% and 96 ± 1% | 45 ± 2 | 93 ± 2 | 11 ± 1 | 
O=S(=O)([O-])c1cc2c(O)c(c1)Cc1cc(S(=O)(=O)[O-])cc(c1O)Cc1cc(S(=O)(=O)[O-])cc(c1OCCCCCCOc1ccc(/N=N/c3ccccc3)cc1)Cc1cc(S(=O)(=O)[O-])cc(c1O)C2.[Li+].[Li+].[Li+].[Li+] [E-1] | 19.4 ± 0.2 | 20.3 ± 0.4 | 96% and 96 ± 1% | 72 ± 5 | 91 ± 2 | 24 ± 2 | 
O=S(=O)([O-])c1cc2c(O)c(c1)Cc1cc(S(=O)(=O)[O-])cc(c1O)Cc1cc(S(=O)(=O)[O-])cc(c1OCCCCCCOc1ccc(/N=N\c3ccccc3)cc1)Cc1cc(S(=O)(=O)[O-])cc(c1O)C2.[Li+].[Li+].[Li+].[Li+] [Z-1] | 10.8 ± 0.8 | 13.3 ± 0.4 | 63% and 63 ± 5% | 291 ± 32 | 69 ± 2 | 99 ± 3 | no activation was observed
CCCCc1ccc(/N=N\c2ccc(OCCCOc3c4cc(S(=O)(=O)[O-])cc3Cc3cc(S(=O)(=O)[O-])cc(c3O)Cc3cc(S(=O)(=O)[O-])cc(c3O)Cc3cc(S(=O)(=O)[O-])cc(c3O)C4)cc2)cc1.[Li+].[Li+].[Li+].[Li+] [Z-2] | 16.6 ± 0.3 | 20.8 ± 0.4 | 94% and 94 ± 2% | 227 ± 17 | 94 ± 2 | 30 ± 4 | no activation was observed
